Here are results for five substances from patent publication US11422132B2, “Peptides and uses thereof for diagnosing and treating myasthenia gravis” (The Regents of the University of California, priority 2016, dated 2022).

pKd: −log10 of the molar value. Entries after “also recorded” stand apart in the source; their conditions may differ. Where no end group is shown, it is not given here.

Experiment [1] relates to mAb 132A. In words: Western blot of peptide-Fc conjugates with mAb 132A. Format: binding, rat. Conditions: Western blot FIG. 13. From the text: (§1) A conjugate has been engineered (FIG. 12B) that fuses the chimeric Torpedo-human peptide (SEQ ID NO:27) to an antibody Fc domain.
The subject of experiment [2] is mAb 198. Nature of the experiment: Western blot of peptide-Fc conjugates with mAb 198. Format: binding, rat. Conditions: Western blot FIG. 13.
Excerpt: as §1

The subject of experiment [3] is mAb 198. Nature of the experiment: Western blot of peptide-IChBD fusion proteins probed with mAb 198. Conditions: for mAb 198 binding compared to its binding to the human 39MIR: human 39MIR mutants, relative to human 39MIR; for mAb 198 binding, result in words: Western blot. Format: binding, rat. From the text: (§2) Chitin beads adsorbed with peptide-IChBD fusion proteins were run on an SDS-PAGE gel and transferred to a nitrocellulose membrane and assayed with the four mAbs.
(§3) Chitin beads adsorbed with peptide-IChBD fusion proteins were run on an SDS-PAGE gel and transferred to a nitrocellulose membrane and assayed with the five mAbs.
The Torpedo (SEQ ID NO:9) and human (SEQ ID NO:8) 39MIRs were made by joining the α(1-12), α(65-79), and α(110-115) segments of their respective a subunits with GS linkers. These two MIR mimics were expressed in E. coli as fusion proteins with an IChBD tag to permit peptide collection on chitin beads. These two peptides differ from each other by eight amino acids (FIG. 2). Both mimics were probed with mAb 198. mAb 198, which was derived from rats that had been immunized with human muscle AChR, is a MIR-directed mAb that binds mammalian as well as Torpedo MIR (13,21). It was also able to passively transfer EAMG to rats and binds to both native assembled AChR and to α-subunit fragments in Western blots (22,23). mAb 198 binds to the Torpedo and human MIR peptide mimics in Western blots (FIG. 3). However, mAb 198 binds to the Torpedo mimic about 50 times more strongly than to the human MIR mimic (FIG. 3).
(§4) To explore the effects of individual amino acid substitutions between the Torpedo and the human AChR MIR mimics, eight peptides were prepared, each with an amino acid substituted from the human sequence into the Torpedo sequence. The single amino acid substitutions in the Torpedo MIR were: N10K (SEQ ID NO:11), L12F (SEQ ID NO:12), R66K (SEQ ID NO:13), A70D (SEQ ID NO:14), I75V (SEQ ID NO:15), R79H (SEQ ID NO:16), D111Q (SEQ ID NO:17), and K115H (SEQ ID NO:18).

The subject of experiment [4] is mAb 35. Nature of the experiment: Western blot of peptide-IChBD fusion proteins probed with mAb 35. Format: binding, rat. Also on record: key to mAb 35, fold-change in binding relative to Torpedo 39MIR: ‘—’ denotes no binding. The note with it: for mAb 35 binding compared to the Torpedo 39 MIR: human 39MIR triple and quadruple mutants, FIG. 7.
The test system of experiment [5] is mAb 132A. In words: Western blot of peptide-IChBD fusion proteins probed with mAb 132A. Format: binding, rat. On the set-up: key to mAb 132A, fold-change in binding relative to Torpedo 39MIR: ‘—’ denotes no binding. Conditions: for mAb 132A binding compared to the Torpedo 39 MIR: human 39MIR triple and quadruple mutants, FIG. 7.
Experiment [6] concerns antibodies in human MG serum samples. In words: Dot blot of His-tagged peptides against human MG serum samples. Type of experiment: binding. From the text:
Sample were obtained from either normal subjects (i.e., without a diagnosis of myasthenia gravis (MG)) or subjects diagnosed with MG. Samples were contacted with the Torpedo 39MIR peptide (SEQ ID NO:9), the human 39MIR peptide (SEQ ID NO:8), the K10N/V75I/[…] human 39MIR triple mutant (SEQ ID NO:26), or the K10N/D70A/V75I/Q111D human 39MIR quadruple mutant (SEQ ID NO:27).
His-tagged variants of the Torpedo 39MIR, human 39MIR, […] triple mutant, and K10N/D70A/V75I/Q111D quadruple mutant peptides were expressed and probed for binding to antibodies in human MG serum samples. The peptides were dot-blotted onto a membrane and probed for binding to antibodies in our human MG serum library. […] None of the His-tagged peptides bound any antibodies in normal human serum samples (FIG. 11). Although the triple mutant peptide (SEQ ID NO:26) bound better overall to mAb 35, mAb 132A, and mAb 198, the quadruple mutant peptide (SEQ ID NO:27) was better for binding antibodies in MG sera.

The test system of experiment [7] is mAb 35. In words: Western blot of peptide-IChBD fusion proteins probed with mAb 35. Type of experiment: binding, rat. Conditions: for mAb 35 binding, result in words: Western blot. As for the experimental part: as §2, §3, §4
The test system of experiment [8] is mAb 132A. Nature of the experiment: Western blot of peptide-IChBD fusion proteins probed with mAb 132A. Type of experiment: binding, rat. As for the experimental part:
as §2, §3, §4

Experiment [9] has as its target mAb 132A. Conditions: IChBD fusion; reference 14; read-out: Kd of complex with mAb 132A; cited from earlier work.
For experiment [10], the system named is MIR directed Abs in EAMG sera. Conditions: reference 14; cited from earlier work.
The test system of a further experiment is mAb 334. In words: Western blot of peptide-IChBD fusion proteins probed with mAb 334. Type of experiment: binding, rat. Conditions: Table 1, Western blot of FIG. 5, Torpedo 39MIR single mutants. As for the experimental part: as §3, §4
Where [11] appears, read: Table 2, Western blot of FIG. 7, human 39MIR multiple mutants.
Where [12] appears, read: Table 1, Western blot of FIG. 5, Torpedo 39MIR single mutants.
The mark [13] stands for this setting: Table 3, single-substitution human 39MIR mutants.

In the case of “Torpedo peptide-Fc conjugate: Torpedo 39MIR peptide (SEQ ID NO:9) conjugated to a human IgG antibody Fc domain plus hinge (SEHETRLVANLLGGGSLRWNPADYGGIKKIRGSLDYTGK; also: conjugated to human IgG Fc with hinge)”, the “binding of mAb 132A to peptide-Fc conjugate” value in the experiment on mAb 132A [1] is reported as “did not bind”. The “binding of mAb 198 to peptide-Fc conjugate” value with mAb 198 [2] was “did not bind”.

For “SEHETRLVANLFGGGSLKWNPADYGGIKKIHGSLDYTGH (synthetic main immunogenic region (MIR) peptide) [K10N/D70A/V75I/Q111D, Human 39MIR quadruple mutant (K10N/D70A/V75I/Q111D)]”, the “mAb 198, fold-change in binding relative to Torpedo 39MIR” value in the experiment on mAb 198 [3] (setting [11]) came to 0.99 fold-change. Further, the “mAb 198 binding compared to its binding to the human 39MIR” value with mAb 198 [3] worked out at 11 ×. Moreover, in the experiment on mAb 35 [4] (setting [11]), the “mAb 35, fold-change in binding relative to Torpedo 39MIR” value turned out to be 1.70 fold-change. Besides, the “mAb 35 binding compared to the Torpedo 39 MIR” value in the experiment with mAb 35 [4] stood at 1.70 ×. In addition, the “mAb 132A, fold-change in binding relative to Torpedo 39MIR” value with mAb 132A [5] (setting [11]) was 0.99 fold-change. Also, in the experiment on mAb 132A [5], the “mAb 132A binding compared to the Torpedo 39 MIR” value is reported as 0.99 ×. The “binding to antibodies in human MG serum samples” value (“binding to antibodies” for short) in [6] (FIG. 11) is recorded as “bound antibodies in the human sera”; in [6] (FIG. 11, listed as SEQ ID NO:27), “a fraction of Abs in MG patient sera”; in experiment [6] (FIG. 11, listed as quadruple mutant peptide) it was “able to bind antibodies in all of our human MG serum samples”.

On to “SEHETRLVANLLGGGSLRWNPADYGGIKKIRGSLDYTGK [Torpedo 39MIR]”, for which the “mAb 35, fold-change in binding relative to Torpedo 39MIR” value in the experiment with mAb 35 [7] (setting [12]), in the experiment with mAb 35 [4] (setting [11]) and in the experiment on mAb 35 [4] (setting [13]) was 1.00 fold-change in each case. Also, the “mAb 132A, fold-change in binding relative to Torpedo 39MIR” value with mAb 132A [8] (setting [12]), in the experiment on mAb 132A [5] (setting [11]) and with mAb 132A [5] (setting [13]) was 1.00 fold-change each time. In addition, the “mAb 198, fold-change in binding relative to Torpedo 39MIR” value in the experiment on mAb 198 [3] (setting [12]), with mAb 198 [3] (setting [11]) and in the experiment on mAb 198 [3] (setting [13]) was 1.00 fold-change throughout. The “mAb 198 binding, result in words” value in the experiment on mAb 198 [3] is listed as “binds; also recorded: able to bind”. Further, in the experiment on mAb 198 [3] (Western blot FIG. 3, more strongly than to the human MIR mimic), the “mAb 198 binding to the Torpedo mimic versus the human MIR mimic” value is “about 50 times”. Besides, at mAb 132A [9], the pKd is 9.68. For the same substance, the “adsorption of MIR directed Abs in EAMG sera that block the binding of biotinylated mAb 132A to the Torpedo AChR” value in experiment [10] is recorded as “able to adsorb all of the MIR directed Abs in EAMG sera”. Besides, in the experiment on mAb 334, the “mAb 334, fold-change in binding relative to Torpedo 39MIR” value was determined as 1.00 fold-change. Besides, the “binding to antibodies” value in [6] (FIG. 11) is reported as “did not bind any antibodies”.

“SEHETRLVANLFGGGSLKWNPDDYGGIKKIHGSLDYTGH (synthetic main immunogenic region (MIR) peptide) [K10N/V75I/Q111D, Human 39MIR triple mutant (K10N/V75I/Q111D)]”: the “mAb 35 binding, result in words” value in the experiment on mAb 35 [7] is “improved binding”. In addition, the “mAb 198, fold-change in binding relative to Torpedo 39MIR” value in the experiment on mAb 198 [3] (setting [11]) worked out at 2.52 fold-change. For the same substance, in the experiment with mAb 198 [3], the “mAb 198 binding, result in words” value is given as “improved binding”. Besides, in the experiment on mAb 198 [3], the “mAb 198 binding compared to its binding to the human 39MIR” value is recorded as 28 ×. Further, the “mAb 198 binding compared to the Torpedo 39 MIR” value in the experiment with mAb 198 [3] (human 39MIR triple mutant, FIG. 7) was 2.52 ×. Besides, in the experiment with mAb 35 [4] (setting [11]), the “mAb 35, fold-change in binding relative to Torpedo 39MIR” value is listed as 2.97 fold-change. For the same substance, in the experiment with mAb 35 [4], the “mAb 35 binding compared to the Torpedo 39 MIR” value is listed as 2.97 ×. Moreover, the “mAb 132A, fold-change in binding relative to Torpedo 39MIR” value with mAb 132A [5] (setting [11]) is 2.46 fold-change. Further, the “mAb 132A binding compared to the Torpedo 39 MIR” value in the experiment on mAb 132A [5] is given as 2.46 ×. Moreover, the “binding to antibodies” value is on record as “only bound antibodies in one MG serum sample” in experiment [6] (FIG. 11) and “bound antibodies in the human sera” in [6] (FIG. 11, listed as K10N/N75I/Q111D).

Take “SEHETRLVAKLFGGGSLKWNPDDYGGVKKIHGSLQYTGH (synthetic main immunogenic region (MIR) peptide) [Human 39MIR]”: the “mAb 35 binding, result in words” value in the experiment with mAb 35 [7] was “does not bind; also recorded: not recognized; also recorded: did not bind”. For the same substance, the “mAb 132A binding, result in words” value in the experiment with mAb 132A [8] (Western blot) is “does not bind; also recorded: not recognized; also recorded: did not bind”. Moreover, the “mAb 198, fold-change in binding relative to Torpedo 39MIR” value in the experiment with mAb 198 [3] (setting [11]) is recorded as 0.09 fold-change; with mAb 198 [3] (setting [13]), 0.02 fold-change. Also, in the experiment on mAb 198 [3], the “mAb 198 binding, result in words” value was “binds; also recorded: recognized; also recorded: able to bind”. The “mAb 35, fold-change in binding relative to Torpedo 39MIR” value in the experiment on mAb 35 [4] (setting [11]) and in the experiment with mAb 35 [4] (setting [13]) was “—” each time. For the same substance, the “mAb 132A, fold-change in binding relative to Torpedo 39MIR” value in the experiment with mAb 132A [5] (setting [11]) and with mAb 132A [5] (setting [13]) was “—” each time. For the same substance, the “binding to antibodies” value in experiment [6] (FIG. 11) was “did not bind any antibodies”.
